How the values were obtained:
PSMA(+) LNCaP cells = test: In vitro confocal fluorescence imaging, cell uptake; assay type: cell-based, human
Protocol: (§1) Both the LNCaP cells and PC3 cells were grown in a T25 cell culture flask (Corning Inc., Corning, NY, USA). The cultured LNCaP cells and PC3 cells were inoculated into a confocal dish and placed in an incubator at 37 °C/5% CO2 for 24 h. The medium was changed 2 h before the cell uptake experiment. The medium was removed, the flask rinsed once with PBS, and 5 μg of PSMA-FITC (100 μl) was added to each dish, which was then filled with medium to a final volume of 2 ml. The cells were incubated in an incubator for 60 min, washed 4 times with PBS buffer containing 0.2% BSA. Add 450 μl 4% paraformaldehyde to fix the cells for 10 min then rinse with PBS for four times. Cell nucleus were stained with 450 μl Hoechst33342 for 10 min and rinsed with PBS for four times. Add 500 μl PBS before observation. The cells were observed under confocal microscope (Olympus FV 1000) in dark room. In the blocking group, the LNCaP cells were pretreated with 2-PMPA (20 μg) for 30 min, and then PSMA-FITC was added and incubated for 60 min. The steps are the same as described above in the dark.

PSMA(−) PC3 cells = test: as above; assay type: cell-based, human; conditions: 5 μg PSMA-FITC, 37 °C, 60 min
Protocol: as §1

[1] = Ex vivo fluorescence imaging of dissected tumors, tissues and organs (distribution); assay type: in vivo, BALB/c male nude mice; conditions: 22Rv1 tumor-bearing mice, 0.5 mg/kg tail vein, 30, 60, 120 min
Protocol: (§2) In vivo fluorescence imaging was performed using the French Biospace Lab in vivo optical imaging system, the PHOTON IMAGER OPTIMA multidimensional real-time awake animal in vivo optical imaging system software was used for analysis, and the FITC exclusive filter was used to collect the fluorescence of PSMA-FITC. All images were collected using the same parameters (lamp voltage, filter, exposure height, exposure time, and field of view). The collected images were processed in a unified manner, and the number of photons per second per centimeter squared per steradian (ph/s/cm^2/sr) was used for analysis. 22Rv1 tumor-bearing mice in the nonblocking group (n = 5) and PC3 tumor-bearing mice (n = 5) were injected with PSMA-FITC (0.5 mg/kg) through the tail vein, and fluorescence imaging was performed at different time points after injection. The 22Rv1 tumor-bearing mice (n = 5) in the blocking group were injected with a mixture of 2-PMPA (2 mg/kg) and PSMA-FITC (0.5 mg/kg), and fluorescence imaging was performed 60 min after the injection. Another 9 22Rv1 tumor-bearing mice were divided into three groups (3/group), PSMA-FITC (0.5 mg/kg) was injected into the tail vein, and the mice were euthanized 30, 60, or 120 min after injection. The tumors, tissues, and organs were dissected, and a fluorescence imaging system was used for in vitro imaging. The ROI was delineated, and the average fluorescence intensity reported.

22Rv1 tumor xenograft = test: In vivo fluorescence imaging of tumor-bearing mice; parameters: species or system BALB/c male nude mice; conditions: for tumor-background ratio (TBR): 60 min after injection, n = 5
Protocol: (§3) All animal procedures were performed in accordance with the protocol approved by the Animal Care and Use Committee of the PLA General Hospital. BALB/c male nude mice (approximately 3–4 weeks old, with a body weight of 13–15 g) were purchased from Charles River Laboratories (Beijing, China). Then, 0.1 ml (approximately 5 × 10^6 cells) of 22Rv1 cell suspension was subcutaneously injected into the right shoulder of each mouse to form an 22Rv1 tumor xenograft. Vernier calipers were used to measure the length and shortest diameter of the tumor, and the tumor volume was estimated according to the formula (V = 1/2 × long diameter × shortest diameter^2). Fluorescence imaging was performed in vivo and in vitro when the tumor volume reached 200–300 mm^3. The PC3 cell planting method is the same as 22Rv1 cell planting method.
as §2
(§4) All measured values are expressed as the means ± standard deviation. Independent sample t-test was used for statistical analysis, and P < 0.05 was considered statistically significant. To clarify tumor contrast, the region of interest (ROI) was delineated, and the mean fluorescence intensity of tumor tissue (T) and background (B) was collected. TBR was used to represent tumor-background contrast. Normal muscle tissue was selected as the background to outline.

PSMA (−) PC3 tumor = test: In vivo fluorescence imaging of tumor-bearing mice; parameters: species or system BALB/c male nude mice; conditions: 0.5 mg/kg tail vein, compared with 22Rv1 tumor-bearing mice
Protocol: as §3, §2, §4

[2] = Acute toxicity test (HE staining of organs); assay type: in vivo, ICR male mice; conditions: 100 mg/kg tail vein, organs collected 7 days later
Protocol: ICR male mice (approximately 3–4 weeks old, with a body weight of 12–16 g) were injected with PSMA-FITC (100 mg/kg) through the tail vein, and organs were collected 7 days later. The organs were sectioned and stained with HE. The control group was injected with the same volume of normal saline. The steps are the same as described above.

[3] = 0.5 mg/kg tail vein, 22Rv1 tumor-bearing mice

## O=C(O)CCC(NC(=O)NC(CCCCNC(=O)CCCCCNC(=S)Nc1ccc2c(c1)C(=O)OC21c2ccc(O)cc2Oc2cc(O)ccc21)C(=O)O)C(=O)O (stereo not drawn) [PSMA-FITC]
PSMA(+) LNCaP cells; LNCaP cells pretreated with 2-PMPA (20 μg) for 30 min, then PSMA-FITC 60 min
  fluorescence signal in cells (confocal microscopy): negligible fluorescence signaling
PSMA(+) LNCaP cells; LNCaP cells, 5 μg PSMA-FITC, 37 °C, 60 min, no blocking
  fluorescence signal in cells (confocal microscopy): Significant fluorescence signals
PSMA(−) PC3 cells
  fluorescence signal in cells (confocal microscopy): negligible fluorescence signaling
[1]
  fluorescence intensity of liver and small intestine (ex vivo): strong fluorescence intensity
  fluorescence intensity of the bladder (ex vivo): obviously at a high level
  uptake by the kidney (ex vivo fluorescence): higher than that measured in other normal organs
22Rv1 tumor xenograft; [3]
  time of highest tumor-background contrast after injection: 60 min
  time to tumor targeting after injection: ≤ 30 min
22Rv1 tumor xenograft; blocking group, coinjection of 2-PMPA 2 mg/kg with PSMA-FITC 0.5 mg/kg
  tumor-background ratio (TBR): 0.44 ± 0.13
22Rv1 tumor xenograft; nonblocking group, PSMA-FITC 0.5 mg/kg tail vein
  tumor-background ratio (TBR): 3.45 ± 0.31
PSMA (−) PC3 tumor
  tumor uptake of the probe: significantly lower than that of 22Rv1 tumor-bearing mice
[2]
  organ damage (histopathology, HE staining): not damaged
